# “And” between values parts separate entries of the source, which are not always exact repeats. Identical values can stand only once. Like-named read-outs stand apart in the source and are kept apart here.
# Key:
# in vitro [1] = conditions: human, n = 1
# [2] = tested on: Plasmodium falciparum Dd2 asexual blood stage parasites; assay: microbe, parasite or virus in culture; parameters: species or system Plasmodium falciparum Dd2 in human erythrocytes; single determination (one 11-point concentration-response curve); conditions: Plasmodium falciparum, DD2, Erythrocyte, 72 h; read-out: AC50
# HepG2-A16-CD81EGFP cells = conditions: average of 2 wells; for HepG2 viability signal, 3 uM, repeat 2: nominal 3 uM (10 mM stock), 4.5 uM for 15 mM, 3.6 uM for 12 mM, 6 uM for 20 mM stock
# [3] = tested on: P. berghei-ANKA-GFP-LucCON liver stage parasites in HepG2-A16-CD81EGFP cells; assay: P. berghei liver stage Pb-Luc assay, Method 1 (UCSD, 1536-well); as to Pb-Luc signal, 1 uM, repeat 1: reference of the scale not given here; as to Pb-Luc signal, 1 uM, repeat 2: reference of the scale not given here; as to Pb-Luc signal, 1 uM, repeat 3: reference of the scale not given here; as to Pb-Luc signal, 3 uM, repeat 1: reference of the scale not given here; as to Pb-Luc signal, 3 uM, repeat 2: reference of the scale not given here; as to Pb-Luc signal, 3 uM, repeat 3: reference of the scale not given here; type: cell-based, Plasmodium berghei; conditions: for Max Resp (signal direction of the dose response): Decrease = decreasing P. berghei viability with dose, Increase = increasing signal, Inactive = no dose response; for activity at 1 µM / activity at 3 µM: 48 h, average of 2 wells, 1536-well plate; for activity at 1 µM: nominal 1 uM (10 mM stock), […] for 15 mM, 1.2 uM for 12 mM, 2 uM for 20 mM stock; for activity at 3 µM: nominal 3 uM (10 mM stock), 4.5 uM for 15 mM, 3.6 uM for 12 mM, 6 uM for 20 mM stock
# [4] = tested on: luciferase-expressing P. berghei liver stage parasites in HepG2 cells; assay: Inhibition of liver-stage development assay (ILSDA), Method 2 (WRAIR, 96-well); type: cell-based, Plasmodium berghei; conditions: for AC50: Plasmodium berghei, HepG2, Method 2
# [5] = tested on: T1, Plasmodium falciparum Dd2-attB-ScDHODH (transgenic line expressing yeast DHODH), asexual blood stages; assay: organism not typed; parameters: replicate k of 3 (each line is one of three independent assays; the three lines of one compound and parasite line follow each other); conditions: 72 h, n = 1
# T1 construct: Dd2-attB-ScDHODH, the transgenic line that expresses yeast DHODH
# How it was run: (§1)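 Both lines were tested side by side with selected compounds, repeated in three independent assays. Differences between parental and ScDHODH-expressing parasites were then assessed with a two-sided Student's t-test.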
# [6] = tested on: T2, Plasmodium falciparum Dd2-attB (parental line), asexual blood stages; assay: microbe, parasite or virus in culture; parameters: replicate k of 3 (each line is one of three independent assays; the three lines of one compound and parasite line follow each other); conditions: n = 1; for Individual replicates / Log AC50 (M): 72 h; for AC50: Plasmodium falciparum, DD2, 72 h, read-out: Individual replicates / Log AC50 (converted)
# T2 construct: Dd2-attB, the isogenic parental line
# How it was run: as §1
# in vitro [7] = conditions: human, HepG2-A16-CD81EGFP cells, uninfected
# [8] = nominal 1 uM (10 mM stock), […] for 15 mM, 1.2 uM for 12 mM, 2 uM for 20 mM stock
# [9] = Plasmodium berghei, repeat 1, read-out: Pb-Luc signal, 1 uM, repeat 1
# [10] = Plasmodium berghei, repeat 2, read-out: Pb-Luc signal, 1 uM, repeat 2
# [11] = Plasmodium berghei, repeat 3, read-out: Pb-Luc signal, 1 uM, repeat 3
# [12] = Plasmodium berghei, repeat 1, read-out: Pb-Luc signal, 3 uM, repeat 1
# [13] = Plasmodium berghei, repeat 2, read-out: Pb-Luc signal, 3 uM, repeat 2
# [14] = Plasmodium berghei, repeat 3, read-out: Pb-Luc signal, 3 uM, repeat 3
# [15] = Plasmodium berghei, Method 1, Hill fit, 50% of maximum activity response, read-out: AC50
# [16] = Plasmodium berghei, Method 1, log10 of molar AC50 from Hill fit, read-out: Log AC50 (converted)
SMILES,AC50 [2] [µM],"HepG2 viability signal, 1 uM, repeat 2 (HepG2-A16-CD81EGFP cells; [8]) [%]","HepG2 viability signal, 3 uM, repeat 2 (HepG2-A16-CD81EGFP cells) [%]",Max Resp (signal direction of the dose response) ([3]; Method 1),"activity at 1 µM [3, 9] [%]","activity at 1 µM [3, 10] [%]","activity at 1 µM [3, 11] [%]","activity at 3 µM [3, 12] [%]","activity at 3 µM [3, 13] [%]","activity at 3 µM [3, 14] [%]",CC50 at 48 h (in vitro [1]; HepG2 cells) [µM],Individual replicates / Log AC50 (M) [5],Individual replicates / Log AC50 (M) [6],AC50 [6] [µM],other results
COc1ccc(C2C=C(c3ccc(Cl)cc3)Nc3nc(-c4ccc(Cl)cc4)nn32)cc1 (stereo not drawn) [NCGC00100531-01],0.237,96.07,80.71,Inactive,88.1,81,70.8,5.3,3.16,51.4,–,–,–,–,"CC50 at 48 h (in vitro [1]; hepg2): 15.3 µM; HepG2 viability signal, 1 uM, repeat 1 (HepG2-A16-CD81EGFP cells; nominal 1 uM (10 mM stock), […] for 15 mM, 1.2 uM for 12 mM, 2 uM for 20 mM stock, repeat 1): 97.18%"
O=C(Nc1ccc(Br)cc1)c1ccc(F)c([S+](=O)([O-])NC2CCCCCC2)c1 [NCGC00139407-01],9.44,–,–,Decrease,–,–,–,–,–,–,13.7,–,–,–,"AC50 ([3]; Method 1, Hill fit, 50% of maximum activity response, read-out: AC50): 1.12 µM; Log AC50 (M) ([3]; Method 1, log10 of molar AC50 from Hill fit): -5.950 M; AC50 [3, 15]: 0.562 µM; AC50 [3, 16]: 0.562 µM; Max Resp (signal direction of the dose response) ([4]; Method 2, Decrease = decreasing P. berghei viability with dose, Increase = increasing signal, Inactive = no dose response): Decrease; AC50 ([4]; Hill fit, 50% of maximum activity response, read-out: AC50): 0.631 µM; AC50 ([4]; log10 of molar AC50 from Hill fit, read-out: Log AC50 (converted)): 0.631 µM"
Oc1c(CNc2ccccc2)cc(COCc2ccccc2)c2cccnc12 [NCGC00183370-01],–,–,–,–,–,–,–,–,–,–,21.7,-4.7986 Log AC50 (M),-5.0486 Log AC50 (M),11.3,AC50 ([5]; read-out: Individual replicates / Log AC50 (converted)): 14.2 µM
Oc1c(CN2CCCC2)cc(COCc2ccccc2)c2cccnc12 [NCGC00183371-01],6.68,–,–,–,–,–,–,–,–,–,8.62,-4.7986 Log AC50 (M) and -5.1486 Log AC50 (M),-5.2986 Log AC50 (M) and -5.1986 Log AC50 (M),3.99,–
CN(C)C1CCN(Cc2cc(COCc3ccccc3)c3cccnc3c2O)C1 (stereo not drawn) [NCGC00183372-01],–,–,–,–,–,–,–,–,–,–,21.7,-5.2986 Log AC50 (M) and -5.1986 Log AC50 (M) and -4.7986 Log AC50 (M),-5.2486 Log AC50 (M) and -5.1486 Log AC50 (M),5.03,–
COc1ccc(CN[C@@H]2C=C[C@@H](c3c(C)nn(-c4ccc(OC)cc4)c3C)C2)cc1 [NCGC00401425-01],4.85,96.20,99.98,–,79.1,135,59,56.4,76.7,51.8,39.6,–,–,–,"viability at 48 h, 1 µM (in vitro [7]): 100%; viability at 48 h, 3 µM (in vitro [7]): 99.3%"
Cc1nn2c(c1-c1ccccc1-c1ccccc1)N(Cc1ccc(O)cc1)CCC2 [NCGC00420512-01],0.485,99.38,110.31,Decrease,76.6,69.5,95.1,15.6,15.8,40.5,28,–,–,–,"AC50 [3, 15]: 1.58 µM; AC50 [3, 16]: 1.58 µM; viability at 48 h, 1 µM (in vitro [7]): 96.5%; viability at 48 h, 3 µM (in vitro [7]): 112%"
